Values joined by “and” are separate entries in the source; they are usually repeats but may differ in a detail not shown here. Identical values can stand only once.
Experiments:
Format in all cases: cell-based
320 non-olfactory GPCRs [1] = molecular target: 320 non-olfactory GPCRs (Homo sapiens, UniProt Q96PE1)
320 non-olfactory GPCRs [2] = molecular target: T1, 320 non-olfactory GPCRs (Homo sapiens, UniProt P20309)
T1 construct: expressed in transfected cells; host or cells: HTLA cells

320 non-olfactory GPCRs [3] = molecular target: T2, 320 non-olfactory GPCRs (Homo sapiens, UniProt Q9GZQ4); details: receptor NMUR2; replicate values, Fig_4g
T2 construct: expressed in transfected cells; host or cells: HTLA cells
T2 sequence (Q9GZQ4 whole entry): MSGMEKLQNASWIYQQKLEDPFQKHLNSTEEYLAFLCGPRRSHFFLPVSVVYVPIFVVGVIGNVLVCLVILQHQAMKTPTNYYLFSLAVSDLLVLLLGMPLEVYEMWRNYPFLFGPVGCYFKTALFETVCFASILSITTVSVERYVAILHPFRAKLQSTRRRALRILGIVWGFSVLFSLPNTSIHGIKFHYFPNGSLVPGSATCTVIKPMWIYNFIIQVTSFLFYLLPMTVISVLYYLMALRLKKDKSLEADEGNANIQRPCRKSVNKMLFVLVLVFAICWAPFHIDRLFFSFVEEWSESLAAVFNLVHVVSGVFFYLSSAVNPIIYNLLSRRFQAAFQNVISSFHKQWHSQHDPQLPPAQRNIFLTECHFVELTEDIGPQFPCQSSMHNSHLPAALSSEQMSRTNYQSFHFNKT

320 non-olfactory GPCRs [4] = molecular target: T3, 320 non-olfactory GPCRs (Homo sapiens, UniProt P08912)
T3 construct: expressed in transfected cells; host or cells: HTLA cells
T3 sequence (P08912 whole entry): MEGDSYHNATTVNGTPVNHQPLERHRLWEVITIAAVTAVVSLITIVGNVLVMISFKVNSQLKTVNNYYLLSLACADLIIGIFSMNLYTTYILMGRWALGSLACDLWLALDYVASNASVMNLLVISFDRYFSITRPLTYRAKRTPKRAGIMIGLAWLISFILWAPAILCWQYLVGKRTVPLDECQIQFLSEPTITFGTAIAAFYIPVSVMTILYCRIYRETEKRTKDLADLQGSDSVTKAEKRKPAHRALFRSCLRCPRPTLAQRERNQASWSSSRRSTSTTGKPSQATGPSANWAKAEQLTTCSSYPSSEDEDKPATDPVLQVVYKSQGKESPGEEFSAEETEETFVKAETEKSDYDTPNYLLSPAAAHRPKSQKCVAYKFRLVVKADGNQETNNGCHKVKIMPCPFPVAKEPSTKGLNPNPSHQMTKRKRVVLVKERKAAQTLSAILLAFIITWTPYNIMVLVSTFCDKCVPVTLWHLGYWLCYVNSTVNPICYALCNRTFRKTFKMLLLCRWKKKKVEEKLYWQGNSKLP
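Throughout, for Fold of Basal: compound tested at 1 µM final concentration.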
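Throughout, for GPCRome agonism screen response: fold over basal response of each receptor without drug.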

Sequence of 320 non-olfactory GPCRs (Homo sapiens, UniProt Q96PE1) (Q96PE1 34-1338): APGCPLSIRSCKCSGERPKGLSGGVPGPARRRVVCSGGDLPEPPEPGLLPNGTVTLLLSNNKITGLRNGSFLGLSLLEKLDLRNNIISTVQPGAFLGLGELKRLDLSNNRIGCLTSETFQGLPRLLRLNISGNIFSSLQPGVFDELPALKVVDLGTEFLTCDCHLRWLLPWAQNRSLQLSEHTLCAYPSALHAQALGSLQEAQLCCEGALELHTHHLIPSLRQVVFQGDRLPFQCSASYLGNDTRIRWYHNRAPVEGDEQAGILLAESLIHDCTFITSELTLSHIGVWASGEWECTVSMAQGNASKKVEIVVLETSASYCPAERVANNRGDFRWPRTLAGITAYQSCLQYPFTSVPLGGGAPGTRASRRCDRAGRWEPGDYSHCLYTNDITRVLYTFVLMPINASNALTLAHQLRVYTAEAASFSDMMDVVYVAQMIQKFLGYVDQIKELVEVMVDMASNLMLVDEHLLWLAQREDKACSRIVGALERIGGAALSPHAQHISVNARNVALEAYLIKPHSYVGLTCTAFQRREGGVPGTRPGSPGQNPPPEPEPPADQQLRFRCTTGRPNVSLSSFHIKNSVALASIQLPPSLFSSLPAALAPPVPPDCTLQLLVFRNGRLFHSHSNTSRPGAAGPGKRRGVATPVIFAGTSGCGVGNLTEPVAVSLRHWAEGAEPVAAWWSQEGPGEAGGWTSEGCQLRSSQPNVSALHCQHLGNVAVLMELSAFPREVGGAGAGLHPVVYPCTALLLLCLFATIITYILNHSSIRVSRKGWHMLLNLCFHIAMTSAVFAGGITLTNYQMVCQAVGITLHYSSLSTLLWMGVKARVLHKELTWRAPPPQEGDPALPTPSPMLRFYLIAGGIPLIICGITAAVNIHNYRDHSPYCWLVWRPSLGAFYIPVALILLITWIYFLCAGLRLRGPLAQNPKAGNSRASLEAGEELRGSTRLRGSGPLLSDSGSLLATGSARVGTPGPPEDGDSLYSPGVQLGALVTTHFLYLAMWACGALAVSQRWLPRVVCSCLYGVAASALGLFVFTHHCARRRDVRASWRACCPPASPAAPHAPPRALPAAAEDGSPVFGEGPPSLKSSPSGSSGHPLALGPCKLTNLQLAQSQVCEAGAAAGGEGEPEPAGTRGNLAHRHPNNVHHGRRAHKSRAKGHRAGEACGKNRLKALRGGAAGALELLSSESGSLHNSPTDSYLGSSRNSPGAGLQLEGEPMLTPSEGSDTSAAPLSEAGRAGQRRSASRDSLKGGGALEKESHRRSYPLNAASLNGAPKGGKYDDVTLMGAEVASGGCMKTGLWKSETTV
T1 sequence (P20309 whole entry): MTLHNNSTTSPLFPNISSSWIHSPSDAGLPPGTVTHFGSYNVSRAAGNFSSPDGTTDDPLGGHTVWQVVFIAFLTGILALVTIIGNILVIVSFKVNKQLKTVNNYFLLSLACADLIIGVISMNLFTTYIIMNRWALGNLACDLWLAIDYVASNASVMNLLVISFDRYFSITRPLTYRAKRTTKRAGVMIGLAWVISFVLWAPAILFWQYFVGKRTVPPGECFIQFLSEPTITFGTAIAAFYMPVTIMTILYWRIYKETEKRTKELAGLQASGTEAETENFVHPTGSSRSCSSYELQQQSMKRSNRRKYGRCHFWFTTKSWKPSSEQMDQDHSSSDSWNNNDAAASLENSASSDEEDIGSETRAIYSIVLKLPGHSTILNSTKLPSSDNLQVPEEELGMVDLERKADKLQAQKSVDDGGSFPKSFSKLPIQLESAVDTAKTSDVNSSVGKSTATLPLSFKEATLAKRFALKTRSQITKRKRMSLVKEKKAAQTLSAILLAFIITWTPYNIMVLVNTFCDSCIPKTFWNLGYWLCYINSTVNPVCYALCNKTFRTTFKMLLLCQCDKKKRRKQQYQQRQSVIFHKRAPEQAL

CCOc1cccc2cc(C(C)NCC3(O)CCCCC3)oc12 (stereo not shown) [O4LE6]
Fold of Basal (320 non-olfactory GPCRs [1]): 1.7314 and 1.927 and 1.697 and 1.27
Fold of Basal (320 non-olfactory GPCRs [2]): 0.7288 and 1.095 and 0.9519 and 0.808
GPCRome agonism screen response (320 non-olfactory GPCRs [3]): 1.0233 and 1.105 and 1.159 and 0.9738
Fold of Basal (320 non-olfactory GPCRs [4]): 0.9113 and 1.052 and 0.8596 and 0.9753

Reference: paper PMC7044277 (Nature Communications, 2020)
